molecular target: T1, Furin (Homo sapiens, UniProt P09958); experiment: Furin enzymatic assay, IC50 determination with Pyr-RTKR-AMC substrate; type: biochemical; conditions: furin 50 nM, Pyr-RTKR-AMC 25 μM, 30 min preincubation; read-out: IC50 against Furin
T1 construct: Purification of Soluble Furin; inferred from purification by Ni2+-chelating chromatography and imidazole elution; made in house; host or cells: MDCK cells (furin-overexpressing), secreted into culture medium
Method: Furin-overexpressing MDCK cells were grown using 15 cm plates (Falcon) in DMEM/High modified synthetic media (Thermo Scientific) supplemented with Gentamicin (10 μg/ml). Each two days the medium was collected. Cells were replenished with fresh medium. To remove cell debris, the collected samples were spun at 3000×g and the supernatant fraction was filtered through a 0.22 μm filter (Corning) and then 100-fold concentrated using a Pellicon XL Biomax 10 concentrator (Millipore). Furin was isolated from the concentrated medium samples using Ni^2+-chelating chromatography on a HiTrap Chelating HP 1.6×2.5 cm column (Amersham Biosciences) equilibrated with 20 mM Tris-HCl buffer, pH 8.0, containing 1M NaCl. To remove the impurities, the column was washed with 50 ml of the same buffer containing 25 mM imidazole. Furin was eluted using 500 mM imidazole. The purified fractions were pooled, concentrated using an Amicon Ultra 50K-cutoff membrane (Millipore), dialyzed against PBS and stored at −80° C. According to SDS-PAGE followed by Coomassie staining of the gel, Western blotting and enzyme activity assays the purity of the isolated furin samples was >95%. The typical yield of purified furin was 0.8-1 mg/liter of cell culture medium. Specific activity of purified furin was >120 units where one unit is the amount of furin that will cleave 1.0 pmol methyl-coumaryl-7-amide (AMC) from the Pyr-Arg-Thr-Lys-Arg-methyl-coumaryl-7-amide (Pyr-RTKR-AMC) substrate per min at ambient temperature, pH 7.5.
Furin activity was measured in triplicate in wells of a 96-well plate in 0.2 ml 50 mM HEPES, pH 7.5, containing 1 mM CaCl2, 0.005% Brij-35 and 20% glycerol. Pyr-RTKR-AMC (25 μM) was used as a substrate. The concentration of furin in the reactions was 50 nM. The steady-state rate of substrate hydrolysis was monitored continuously (λex=360 nm and λem=465 nm) at 37° C. using a Spectramax Gemini EM fluorescent spectrophotometer (Molecular Devices).
Furin (50 nM) was preincubated for 30 min at 20° C. with increasing concentrations of the individual compounds in 0.1 ml of 50 mM HEPES, pH 7.5, containing 1 mM CaCl2, 20% glycerol and 0.005% Brij 35. The Pyr-RTKR-AMC substrate ([…]) was added in 0.1 ml of the same buffer. Reaction velocity was monitored continuously at λex=360 nm and λem=465 nm on a Spectramax Gemini EM fluorescence spectrophotometer. All assays were performed in triplicate in wells of a 96-well plate. IC50 values were calculated by determining the concentrations of the compounds needed to inhibit 50% of the furin activity against Pyr-RTKR-AMC substrate. GraphPad Prism was used as fitting software.

T1 sequence (P09958 108-715 limits assumed): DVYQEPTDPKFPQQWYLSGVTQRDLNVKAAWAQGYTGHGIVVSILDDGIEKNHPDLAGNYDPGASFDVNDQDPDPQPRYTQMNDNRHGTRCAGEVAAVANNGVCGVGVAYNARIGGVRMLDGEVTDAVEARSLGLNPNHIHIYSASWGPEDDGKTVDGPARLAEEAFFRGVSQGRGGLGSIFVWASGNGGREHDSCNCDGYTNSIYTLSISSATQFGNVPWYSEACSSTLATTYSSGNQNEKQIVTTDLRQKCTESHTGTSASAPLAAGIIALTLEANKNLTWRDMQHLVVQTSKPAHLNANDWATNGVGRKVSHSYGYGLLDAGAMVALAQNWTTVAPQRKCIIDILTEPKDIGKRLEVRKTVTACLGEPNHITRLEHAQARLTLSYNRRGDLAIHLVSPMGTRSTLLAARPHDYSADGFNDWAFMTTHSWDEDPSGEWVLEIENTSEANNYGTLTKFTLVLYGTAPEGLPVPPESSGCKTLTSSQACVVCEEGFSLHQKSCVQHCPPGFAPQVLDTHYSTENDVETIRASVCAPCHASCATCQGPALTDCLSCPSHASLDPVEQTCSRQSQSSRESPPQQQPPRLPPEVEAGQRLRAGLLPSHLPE

| Compound | IC50 [nM] |
| --- | --- |
| CC(=O)N[C@@H](CCCNC(=N)N)C(=O)N[C@H](C(=O)N[C@@H](Cc1ccc(N=C(N)N)cc1)C(=O)NCc1ccc(/C(N)=N/O)cc1)C(C)C [Compound D] | 1200 |
| CC(C)[C@H](NS(=O)(=O)Cc1ccc(C(=N)N)cc1)C(=O)N[C@@H](CCCNC(=N)N)C(=O)NCc1ccc(C(=N)N)cc1 [Compound E] | 300 |
| CC(=O)N[C@@H](CCCNC(=N)N)C(=O)N[C@H](C(=O)N[C@@H](Cc1ccc(N=C(N)N)cc1)C(=O)NCc1ccc(C(=N)N)cc1)C(C)C [Compound A] | 7 |

Other lines, results leading:

| IC50 [nM] | Compound |
| --- | --- |
| 9 | CC(=O)N[C@@H](CCCNC(=N)N)C(=O)N[C@H](C(=O)N[C@@H](Cc1ccc(N=C(N)N)cc1)C(=O)NCc1ccc(C(=N)N)cc1F)C(C)C [Compound C] |
| 3.7 | CC(=O)N[C@@H](CCCNC(=N)N)C(=O)N[C@H](C(=O)N[C@@H](Cc1ccc(N=C(N)N)cc1)C(=O)NCc1ccc(C(=N)N)c(F)c1)C(C)C [Compound B] |

test system: Dengue; experiment: Dengue viral replication assay, secondary CPE/virus yield reduction (VYR); type: cell-based; conditions: read-out: cellular activity against Dengue (EC90)
Method: Primary cytopathic effect (CPE) reduction assay. Four-concentration CPE inhibition assays are performed. Confluent or near-confluent cell culture monolayers in 96-well disposable microplates are prepared. Cells are maintained in MEM or DMEM supplemented with FBS as required for each cell line. For antiviral assays the same medium is used but with FBS reduced to 2% or less and supplemented with 50 μg/ml gentamicin. The test compound is prepared at four log 10 final concentrations, usually 0.1, 1.0, 10, and 100 μg/ml or μM. The virus control and cell control wells are on every microplate. In parallel, a known active drug is tested as a positive control drug using the same method as is applied for test compounds. The positive control is tested with each test run. The assay is set up by first removing growth media from the 96-well plates of cells. Then the test compound is applied in 0.1 ml volume to wells at 2× concentration. […] The dye content in each well is quantified using a 96-well spectrophotometer at 540 nm wavelength. […]
Secondary CPE/Virus yield reduction (VYR) assay. […] The incorporated dye content is quantified as described above. […] Compounds observed to be active above are further evaluated by VYR assay. […] Wells are scored for presence or absence of virus after distinct CPE (measured by neutral red uptake) is observed. […]

| Compound | EC90 [nM] |
| --- | --- |
| CC(=O)N[C@@H](CCCNC(=N)N)C(=O)N[C@H](C(=O)N[C@@H](Cc1ccc(N=C(N)N)cc1)C(=O)NCc1ccc(C(=N)N)cc1)C(C)C [Compound A] | 14000 |

Reference: patent publication US20150051138A1, “INHIBITORS OF FURIN AND OTHER PRO-PROTEIN CONVERTASES” (Sanford-Burnham Medical Research Institute, priority 2012, published 2015)
